Values joined by “and” are separate entries in the source; they are usually repeats but may differ in a detail not shown here. Identical values can stand only once. Like-named read-outs stand apart in the source and are kept apart here. Where no end group is shown, it is not given here.
Key:
[1] = system: binding of CSFZ(Cys) to HepG2 cells; assay: Inhibition of CS binding to HepG2 cells by glycosaminoglycans; set-up: species or system human; settings: preincubated with 5 μg/ml CSFZ(Cys); FIG. 9
Experimental: 10^5 HepG2 cells were deposited in 96-well Removawell tissue culture plates and allowed to grow overnight in MEM (Gibco) containing 10% FCS, 1 mM L-glutamine (Gibco), 3 mg/ml glucose (Sigma) and 1× non-essential amino acids (Gibco). The HepG2 cells were fixed with 4% paraformaldehyde in TBS (50 mM Tris-HCl, pH 7.5, 137 mM NaCl, 2 mM KCl), were washed 3 times with TBS, and were stored at 4° C. in BSA/TBS until use. CSFZ(Cys) at 5 μg/ml was incubated with increasing amounts of the presumed inhibitors at 37° C. for 15 min. Fifty μl of these mixtures were added to the cells, incubated for 1 hr at 37° C., washed 3× with TBS/0.05% Tween and then sequentially incubated with 50 μl of mAb 2A10 at a concentration of 10 μg/ml in TBS/BSA buffer for 30 min at 37° C., and 1:5000 dilution of goat anti-mouse IgG conjugated to alkaline phosphatase (Boehringer) for 30 minutes. […] After 15 minutes, the fluorescence was measured in a Fluoroskan II plate reader (ICN).
Proteoglycans were preincubated with 5 μg/ml of CSFZ(Cys) and then were added to paraformaldehyde-fixed HepG2 cells. […] Each point represents the mean of triplicates. Percent inhibition was calculated by comparison to CSFZ(Cys) preincubated in medium alone.

[2] = system: heparan sulfate proteoglycans (HSPG); assay: CS/proteoglycan co-immunoprecipitation; format: binding, human; settings: for effect on co-immunoprecipitation of the CS receptor by CSFZ(Cys): 100 μg/ml added to 35SO4-labeled HepG2 cell extracts; for effect on co-immunoprecipitation of purified proteoglycans by CSFZ(Cys): purified trypsin-released HepG2 proteoglycan, FIG. 17
Experimental: All extracts and supernatants were first precleared with normal rabbit serum and Staph A cells. Then 32 μg/ml of CSFZ(Cys) or 64 μg/ml of CS27IVC, Falc-2 or Falc-1 were added for 30 minutes, followed by 10.8 μg/ml mAb 2A10 for 30 minutes, and 1% Staph A cells (final concentrations). The suspensions were shaken for 1 to 5 hours at 4° C. The Staph A cells were washed 3 times with the lysis buffer A, 2 times with lysis buffer B (10 mM Tris-HCl, pH 7.2, containing 100 mM NaCl and 0.5% NP40), 1 time with 50 mM Tris-HCl, ph 7.2, and were processed in this buffer for electrophoresis under reducing and non-reducing conditions.
Extracts of cells metabolically labeled with ^35SO4 were incubated for 30 minutes at 4° C. with 32 μg/ml of recombinant CSFZ(Cys) or 64 μg/ml Falc-1, and were immunoprecipitated with mAb 2A10 and Staph A cells. […] Immunoprecipitation with Falc-1 was negative. The SDS-PAGE patterns of the total lysate of HepG2 cells, and of the molecules co-immunoprecipitated with CSFZ(Cys) resembled the corresponding liver SDS-PAGE patterns. In kidney lysates, CSFZ(Cys) selectively immunoprecipitated a band of slightly lower molecular weight than the total kidney sulfated molecules.
Sub-confluent HepG2 cells were incubated with various concentrations of trypsin for 5 minutes at 4° C. […] Independently of the trypsin concentration, about 80% of the released HSPG was co-immunoprecipitated by 32 μg/ml CSFZ(Cys) and 10.8 μg/ml mAb 2A10. Under the same conditions, Falc-1 was negative.
^35SO4-labeled trypsin-released proteoglycan (total supernatant) was precipitated by CSFZ(Cys) (32 μg/ml), Falc-2 (64 μg/ml), CS27IVC (64 μg/ml) and Falc-1 (64 μg/ml). The labeled molecules were incubated with CSFZ(Cys), CS27IVC, and Falc-2 at equivalent concentrations of Region II+, and co-immunoprecipitated with the mAb 2A10. CSFZ(Cys), lacking most of the repeat region, precipitated up to 86% of the total sulfate-labeled proteoglycans (see FIG. 14), while CS27IVC and Falc-2 precipitated only 18% and 6% of the counts, respectively. Falc-1, which lacks Region II+, was negative.
Subconfluent sulfate-labeled HepG2 cells were incubated with 20 μg/ml trypsin for 5 minutes at 4° C., and the supernatants were loaded onto an anion exchange chromatography Pharmacia mono-Q column. These were eluted with a 0 to 2 M NaCl gradient in the presence of 7 M urea. […] Protein was not detectable in the labeled peaks. One ml fractions were collected and counted.

[3] = system: Vivax-2 binding to sulfatide; assay: Inhibition of binding of Vivax-2 to sulfatide; set-up: species or system P. vivax
Experimental: (§1) Solid phase binding assays: Thirty μl of lipids or steroids dissolved in methanol (20-250 μg/ml) were dried into wells of microassay plates (Cat.# 3911—Falcon—Oxnard, Calif.). The plates were then blocked with 1% BSA/PBS pH 7.4 (BSA/PBS) for 30 minutes. Wells were incubated with recombinant protein (or with parasite extract) in PBS/BSA for 1 hour, washed 3 times with BSA/PBS, incubated for 1 hour with monoclonal antibodies 2F2 or 2A10 in BSA/PBS, washed 3 times, and then incubated with (10^5 cpm/well) ^125I protein A (Amersham Corp., Arlington Hts., Ill.). In the case of the P. berghei CS protein, wells were incubated with ^125I labelled mAb 3D11. Wells were washed again and the bound radioactive protein was counted in an LKB gamma-counter (model #1260, Pharmacia, Inc., Gaithersburg, Md.). For inhibition assays, the recombinant proteins were mixed with dilutions of the various polymers in BSA/PBS, the mixture was loaded into the wells of the microtiter plates, and the binding assay performed as above. See also, Roberts, et al. J. Biol. Chem. 260:9405-9411, 1985.

[4] = system: Vivax-2 binding to cholesterol-sulfate; assay: Inhibition of binding of Vivax-2 to cholesterol-sulfate; set-up: species or system P. vivax
Experimental: as §1

P. berghei sporozoites [5] = assay: Infection assay of HepG2 cells with polymers; format: cell-based; settings: for invasion of hepatocytes by sporozoites in vitro: no conditions given; for effect on sporozoite invasion: present during invasion, 5-50 μg/ml
Experimental: Infection assay: Semiconfluent monolayers of HepG2 cells were grown in 10% FCS/MEM on 8 chamber slides (#4808 Lab-tek -Naperville, Ill.) for 24 hours prior to each experiment. Sporozoites were pre-incubated in media alone or with the various polymers for 15 minutes at 4° C. 5×10^4 sporozoites, in a volume of 10 μl, were added per chamber. After 4 hours of incubation at 37° C., the medium containing the sporozoites was gently aspirated, and 0.5 ml MEM/10% FCS was added. Fresh medium was added at 18 hours and 28 hours, and then cells were fixed with methanol containing 0.3% H2O2 at 48 hours. After fixation, the wells were blocked with 10% FCS/PBS and were incubated with 10 μg/ml of mAb 2E6. Binding of the mAb was detected with a polyclonal goat anti-mouse Ig conjugated to horseradish peroxidase. […] The parasites in each well are counted under a 40× light microscope objective.
The cells were fixed and stained with mAb 2E6, followed by goat-anti-mouse linked to horseradish peroxidase. Numbers represent schizonts counted/20 fields under 40× magnification in a light microscope.

[6] = system: binding of CS27IVC to liver sections; assay: Peptide inhibition of CS27IVC binding to frozen liver sections; set-up: species or system rat; settings: peptide preincubation, up to 500 μg/ml
Experimental: The procedure was carried out essentially as described by Dukor P. et al., Proc. Natl. Acad. Sci. USA 67:991-997, 1970 and Imai Y. et al., J. Cell. Biol. 111:1225-1232, 1990. Rats were euthanized with CO2. Small pieces of the liver, spleen, heart, brain and lung were removed, snap frozen in liquid nitrogen, embedded in Tissue Tek O.C.T. (Miles, Inc., Naperville, Ill.), and cut into 5 μm sections. Sections were dried for 30 min., fixed for 10 min. in 4% paraformaldehyde, rinsed three times with phosphate-buffered saline (PBS), and either used immediately or stored at 4° C. in 1% BSA, 0.5% Tween, PBS (BSA/TPBS). After blocking with 100 mM glycine (pH 7.2) and with BSA/TPBS, the sections were sequentially incubated at 37° C. with recombinant proteins for 1 hr, 10 μg/ml MAb 2A10 for 45 min., and rat anti-mouse immunoglobulin conjugated to fluorescein isothiocyanate (Boehringer Mannheim, Indianapolis, Ind.) for 45 min. The slides were counterstained for 10 min. with 0.3% Evans blue, rinsed extensively in PBS, and finally observed under a fluorescence microscope. For peptide inhibition experiments, the sections were first incubated with the peptide at various concentrations in BSA/TPBS for 1 hour at 37° C., washed six times with BSA/TPBS, and then stained with 2.5 μg/ml CS recombinant protein as described above. In a few experiments, the tissues were fixed for 10 min. with methanol, acetone, or 4% paraformaldehyde containing 0.5% glutaraldehyde.

P. berghei sporozoites [7] = format: cell-based; settings: for Number of EEF (Mean ± SD): schizonts per 20 fields
Experimental: Assays were conducted according to the methods described by Hollingdale, M. R. et al.. Science 213:1021-1022, 1981. and Sinden, R. E., WHO Bulletin MOS (Suppl.) 68:115-125, 1990. HepG2 cells were plated in FCS-MEM at a density of 0.5×10^6 cells/ml in 8-chamber slides (4808 Lab-tek, Naperville, Ill.) 24 hr. before each experiment. […] For antibody inhibition experiments, sporozoites were preincubated in FCS-MEM alone, or FCS-MEM containing anti-Region II IgG, or with preimmune sera IgG for 30 min. at 4° C. Sporozoites (5×10^4), in a volume of 100 μl, were added to each well. The medium was replenished after 2 hr. and changed after 18 and 28 hr. Each point was performed in quadruplicate. In experiments designed to evaluate the toxicity of the peptides and antisera, sporozoites were first incubated with the HepG2 cells for 2 hr in FCS-MEM. FCS-MEM containing the peptide at a concentration of 250 μg/ml (or the IgGs at a concentration of 700 μg/ml) was then added to the cultures, and incubation proceeded for two additional hours. As above, FCS-MEM was changed after 18 and 28 hr. All cultures were fixed with cold methanol containing 0.3% H2O2 after 48 hr. […] The number of exoerythrocytic forms in 20 fields was counted in a double-blind fashion under a 20× light microscope objective.
The number of exoerythrocytic forms (“EEF”) of the parasite that developed in the HepG2 cells were counted two days later. […] In Table 2, “Number of EEF” represents the average number of schizonts counted per 20 fields under 20-times magnification of a light microscope in quadruplicate wells; P values were calculated by one-way analysis of variances corrected by the Bonferroni method using the commercially available computer program GraphPAD Instat, version 1.14, copyright 1990. […]

[8] = peptide 500 μg/ml present during invasion

Substance	inhibition of CS binding to HepG2 cells [1]	effect on co-immunoprecipitation of the CS receptor by CSFZ(Cys) [2]	effect on co-immunoprecipitation of purified proteoglycans by CSFZ(Cys) [2]	% INHIBITION ([4]; inhibitor 10 mg/ml) [%]	invasion of hepatocytes by sporozoites in vitro (P. berghei sporozoites [5])	% INHIBITION ([3]; inhibitor 1 mg/ml) [%]	effect on sporozoite invasion (P. berghei sporozoites [5])	further results
heparin	inhibited	prevented	inhibited co-immunoprecipitation	31.2	inhibited	–	–	% INHIBITION ([3]; inhibitor 100 μg/ml): 0%; % INHIBITION ([4]; inhibitor 1 mg/ml): 0%
heparan-sulfate	inhibited	–	–	0	–	0	no effect	effect on binding to sulfatide ([3]; 1 mg/ml): no effect
PGSANKPKDELDYANIEKK [Pf4]	–	–	–	–	–	–	–	inhibition of the binding of CS27IVC to liver sections [6]: failed to inhibit; Number of EEF (Mean ± SD) (P. berghei sporozoites [7]; peptide 250 μg/ml present during invasion): 122.5 ± 13.4 and 123.7 ± 20.1 and 105.0 ± 12.5; Percentage of Inhibition (P. berghei sporozoites [7]; [8]): 0.0%; Number of EEF (Mean ± SD) (P. berghei sporozoites [7]; [8]): 375.2 ± 52
dextran	not	–	–	0	–	0	no effect	–
fucoidan	inhibited	–	–	–	inhibited	–	–	–
chondroitin sulfate	not	no effect	not	–	–	–	–	–

— patent US20030119733A1, “Compositions and methods for inhibiting hepatocyte invasion by malarial sporozoites” (New York University, priority 1992, published 2003)
